Reference: patent US20030124132A1 (University of Texas, published 2003)

What was measured:
TNFα = TNFα serum levels in treated animals (Quantikine-M kit); type: in vivo, mice; details: tTF containing no endotoxin (n=6); any of the time points
Description: (§1) Mice were closely observed after treatment for clinical signs of toxicity and clinical status was documented at defined time points (5 minutes, 10 minutes, 15 minutes, 30 minutes. 1 hour, 2 hours, 24 hours, 48 hours, 72 hours). Blood samples were taken from the tail vein at 1 hour, 2 hours and 24 hours to measure TNFα blood levels. Three days after treatment, the mice were anesthetized, blood samples were taken from the vena cava for coagulation tests, and an autopsy was performed to document any changes in gross pathology. Tumors, lymph node metastases and the major normal organs (heart, lung, brain, liver, kidney, colon, spleen, pancreas) were harvested and prepared for histological analysis.
TNFα levels in serum were deter-mined using the Quantikine-M kit (R&D Systems, Minneapolis, Minn.) according to the manufacturer's instructions.

[1] = tested on: A20 lymphoma cells (I-A^d positive), mouse or human plasma; assay: In vitro coagulation assay on A20 cells with capture bispecific antibody B21-2/10H10; type: cell-based; details: for coagulation time: cells alone 190 seconds
C1300 Muγ tumors = assay: Anti-tumor effects of tTF and immunoglobulin-tTF in C1300 Muγ tumors; type: in vivo, nu/nu mice; details: tTF alone or mixed with control bispecific antibodies
Description: The tumor test systems were: i) L540 human Hodgkin's disease tumors growing in SCID mice; ii) C1300 Muγ (interferon-secreting) neuroblastoma growing in nu/nu mice; iii) H460 human non-small cell lung carcinoma growing in nu/nu mice. To establish solid tumors, 1.5×10^7 tumor cells were injected subcutaneously into the right anterior flank of SCID or BALB/c nu/nu mice (Charles River Labs., Wilmingham, Mass.). When the tumors had grown to various diameters, mice were assigned to different experimental groups, each containing 4 to 9 mice.
Other mice received equivalent quantities of bispecific antibody alone. The injections were performed over ˜45 seconds into one of the tail veins, followed by 200 μl of saline. The infusions were repeated six days later. Perpendicular tumor diameters were measured at regular intervals and tumor volumes were calculated.
Mice bearing small (300 mm^3) C1300 Muγ tumors were injected intravenously with 16-20 μg tTF219. The treatment was repeated one week later. […] One week after the second treatment with tTF219, tumors were 60% of the size of tumors in mice receiving diluent alone. The greater effectiveness of the second injection probably derives from the greater thrombotic action of tTF219 on vessels in large tumors, observed above.
Mice bearing small (300 mm^3) subcutaneous C1300 Muγtumors were treated with tTF219 or with a complex of tTF219 and a bispecific antibody, OX7 Fab′/10H10 Fab′, not directed to a component of the tumor environment. The treatment was repeated 6 days later.

[2] = tested on: thrombin-antithrombin-complexes (TAT); assay: Plasma thrombin-antithrombin-complexes (Enzygnost TAT micro-assay) three days after treatment; type: in vivo; details: tTF alone; tumor bearing mice, three days after i.v. treatment
Description: as §1
At the time of autopsy, citrated blood was sampled from the vena cava and thrombocyte-free plasma was prepared by centrifugation. […] Thrombin-Antithrombin-complexes were detected with the Enzygnost® TAT micro-assay (Dade-Behring, Marburg, Germany) according to the manufacturer's instructions. ATIII levels were determined using the Coamatic® antithrombin-assay (Haemocbrom, Essen, Germany) following the manufacturer's instructions. Changes in the blood levels of thrombin and plasmin were detected by mixing citrated plasma with the respective chromogenic substrates S2238 and S2403 (Haemochrom, Essen, Germany) and measuring the increase of the absorption at 405 nm by an ELISA reader.

[3] = tested on: 2F2B mouse endothelial cells; assay: Binding of tTF to tissue factor-expressing endothelial cells (FACS, cell bound coagulation assay); type: cell-based; details: FACS analysis or cell bound coagulation assay
Description: Cells were washed and coagulation factor mix (as described above) was added. S2765 substrate was added and Factor Xa generation was measured as described above.
2F2B cells were stimulated with LPS (20 μg/ml) or TNFα (500 U/ml) for 4 h at 37° C. […] Fluorescent cells were detected on a flow cytometer (Becton Dickinson, San Jose, Calif.).

bEnd 3 cells = assay: Cell bound coagulation assay on stimulated endothelial cells (Factor Xa generation); type: cell-based, mouse; details: for Factor Xa generation due to Factor VIIa production: mix with 2 μg/ml factor VII and 0.01 μg/ml factor VIIa; for Factor Xa generation: mix with 0.5 μg/ml factor VIIa
Description: (§2) To assay the coagulation induction of stimulated versus unstimulated endothelial cells, bend 3 cells were seeded in 48 well tissue culture plates at a density of 1×10^4 cells per well and allowed to adhere overnight. Cells were stimulated with endotoxin (0.5 μg/ml and 10 μg/ml) or TNFα (500 U/ml) for 4 h at 37° C. […] After incubation for 45 min at room temperature, cells were washed and incubated with various coagulation factor mixes as follows: (1) 0.5 μg/ml factor VIIa in a mix containing 2.8 μg/ml factor IX, 3.4 μg/ml factor X, 50 μM phospholipids, in calcium buffer (as specified above); (2) 0.01 μg/ml factor VIIa in a mix as in (1); (3) 2 μg/ml factor VII (Calbiochem-Novabiochem, San Diego, Calif.) in a mix as in (1); (4) 2 μg/ml factor VII. 0.01 μg/ml factor VIIa in a mix as in (1). The supernatant of wells was transferred into a 96 well ELISA plate. Substrate S2765 was added and Factor Xa generation measured alongside different concentrations of Factor Xa standard (7 nkatS2222; 0.7 nkatS2222; 0.07 nkatS2222). OD405 nm values were calculated as nkatS2222 Factor Xa from the Factor Xa standard curve.
as §2, with “bEnd” for “To assay the coagulation induction of stimulated versus unstimulated endothelial cells, bend”, “with” for “with various”, “mix” for “mixes”, “follows:” for “follows: (1)”, “buffer;” for “buffer (as specified above); (2) 0.01 μg/ml factor VIIa in a mix as in (1); (3) 2 μg/ml factor VII (Calbiochem-Novabiochem, San Diego, Calif.) in a mix as in (1); (4) 2 μg/ml factor VII. 0.01 μg/ml factor VIIa in a mix as in (1). The”

For “tTF: extracellular domain of the mature Tissue Factor protein (amino acid 1-219), recombinant; depyrogenated in Example X”, the TNFα in serum (TNFα) was “could not be detected”, the coagulation time ([1]; 20,000 molecules of tTF per cell) was 140 s and the coagulation time ([1]; 300,000 molecules of tTF per cell) was 40 s. The “concentration at which plasma coagulated in 50 seconds” value ([1]; bound via B21-2/10H10 to A20 cells, separate studies per block) was 3 nM, the “effect on coagulation time” value ([1]; cells incubated with tTF alone (not bound)) was “no effect on coagulation time” and the “time to visible fibrin strands after addition of mouse plasma” value ([1]; tTF bound to A20 cells by B21-2/10H10, untreated cells 164 seconds) was 36 s. The “tumor growth versus antibodies or saline alone” value (C1300 Muγ tumors) was “grew significantly more slowly”, the TAT [2] was 25.4 ng/mL and the “binding to endothelial cells expressing tissue factor” value [3] was “no binding of tTF to endothelial cells”. For the same substance, the “Factor Xa generation due to Factor VIIa production” value (shortened to “Factor Xa generation due”) (bEnd 3 cells; cells stimulated with 0.5 μg/ml LPS (row Medium = stimulant alone)) was 3.00 nkats2222, the “Factor Xa generation” value (bEnd 3 cells; cells stimulated with 0.5 μg/ml LPS, then incubated with row agent (row Medium = stimulant alone)) was 2.00 nkats2222 and the “Factor Xa generation” value (bEnd 3 cells; cells stimulated with 10 μg/ml LPS, then incubated with row agent (row Medium = stimulant alone)) was 2.91 nkats2222. For the same substance, the “Factor Xa generation” value (bEnd 3 cells; cells stimulated with TNFα (500 U/ml), then incubated with row agent (row Medium = stimulant alone)) was 0.67 nkats2222, the “Factor Xa generation due” value (bEnd 3 cells; cells stimulated with TNFα (row Medium = stimulant alone)) was 1.91 nkats2222 and the “Factor Xa generation” value (bEnd 3 cells; cells stimulated with medium, then incubated with row agent) was 0.40 nkats2222. The “Factor Xa generation due” value (bEnd 3 cells; cells stimulated with medium) was 0.70 nkats2222.
